# Experimental data: US20260007624A1, “COMPOSITION FOR AMELIORATING OR TREATING CANCER CACHEXIA […] LACTATE AS ACTIVE INGREDIENT” (METIMEDI PHARMACEUTICALS CO., LTD., priority 2022, published 2026)
# Values joined by “and” are separate entries in the source; they are usually repeats but may differ in a detail not shown here. Equal entries are not always repeated.
# Assays:
# Hif-1α = assay: Western blot of Hif-1α expression in cancer cells; format: cell-based; conditions: for Hif-1α expression: hypoxia 1% O2, FIG. 4
# Procedure: Then, Hif-1α antibody was diluted in TBST and attached to the protein on the membrane, washed with TBST, and treated with secondary antibody, and the band results were confirmed using X-ray film or Gel doc equipment.
# [1] = test system: metastatic colorectal cancer refractory to standard therapy; assay: Phase II clinical trial of calcium lactate (cachexia, tumor response, survival, safety); format: in vivo, patients; design: key to Overall tumor response: SD means that tumor growth has stopped; PD means that the tumor has increased by 20% or more
# Procedure: The clinical study was a phase II clinical trial targeting patients with metastatic colorectal cancer refractory to standard therapy.
# Twenty-two patients were enrolled, and 16 completed the trial (see Table 1).
# The administration method was subcutaneous injection, and the administration dose was 100 mg/day. One cycle consisted of 4 weeks of treatment with 5 days of I.P. administration subcutaneously once daily followed by 2 days of rest.
# Tumor assessment was performed every 2 cycles compared to baseline.
# The clinical outcomes were the primary outcome of disease control rate, and the secondary outcomes were overall survival, progression-free survival, and safety. Body weight was measured 1 month after the start of administration and expressed as the increase or decrease in body weight before and after administration. Tumor response was performed with a CT scan 2 months after the start of administration and expressed as the increase or decrease in tumor size before and after administration. SD means that tumor growth has stopped, and PD means that the tumor has increased by 20% or more.
# BMI and Weight TO were measured at the screening visit, and Weight T1mo and SLD changes in the target lesion were measured 1 and 2 months after IP administration, respectively. SLD is an abbreviation for sum of longest diameters. SD and PD are abbreviations for stable disease and progressive disease, respectively.
# [2] = Tissue pharmacokinetics (lactate concentration in muscle and tumor tissue); format: in vivo, Balb/c nude mice; conditions: HCT-116 tumor mice, 20 mg/kg S.C.
# Procedure: Balb/c nude mice were obtained and 1×10^6 HCT-116 was implanted subcutaneously to grow tumors. […] Each obtained tissue was analyzed for changes in lactate concentration over time using a lactate analysis kit.
# [3] = test system: colon cancer cell line HCT-116; assay: Cytotoxicity assay, colon cancer cells; format: cell-based; conditions: HCT-116, 48 hours, FIG. 2 lower panel
# Procedure: 5×10^3 of normal colon fibroblast cell line CCD-18Co or colon cancer cell line HCT-116 were cultured in a 96-well plate at 37° C., 5% CO2. Incubator and observed under a microscope after 48 hours.
# [4] = 8 patients with weight loss including cachexia
# [5] = of 16 patients who completed the trial
smiles,measurement,setting,value
CC(O)C(=O)[O-].CC(O)C(=O)[O-].[Ca+2] (stereo not drawn) [calcium lactate],Hif-1α expression,Hif-1α; AsPC-1 (pancreatic cancer),reduced
same,Hif-1α expression,Hif-1α; H1975 (lung cancer),reduced
same,Hif-1α expression,Hif-1α; HCT-116 (colon cancer),reduced
same,Hif-1α expression,Hif-1α; MDA-MB-231 (breast cancer),reduced
same,expression of Hif-1α protein,"Hif-1α; colon cancer cells, hypoxia, FIG. 3 upper panel",reduced
same,efficacy of preventing patients from cachexia,[1]; 2 out of 16 patients progressed to cancerous cachexia,87.5%
same,median overall survival,[1]; 8 patients with maintained or increased weight,8 months
same,median increase in tumor size,[1]; [4],17%
same,median overall survival,[1]; [4],4.15 months
same,median increase in tumor size,[1]; 8 patients with weight maintenance or increase,9.5%
same,disease control rate,[1]; 16 patients,68.75%
same,drug efficacy for tumor growth arrest,"[1]; 16 patients, metastatic stage",68.8%
same,Overall survival,[1]; individual patient,2.4 months and 4.4 months and 6 months and 14.9 months and 7.6 months and 2.7 months and 3.6 months and 7.9 months and 23 months and 8.1 months and 5.1 months and 6.3 months and 16.7 months and 25.8 months
same,SLD change at target lesions,"[1]; individual patient, CT scan 2 months after start, RECIST 1.1",12.5% and 10.8% and 15.7% and 12.6% and 9.1% and 34.7% and 17.7% and 29.0% and −2.9% and 129.2% and 3.3% and 15.6% and 10.0% and 18.4% and 2.2% and 6.2%
same,Overall tumor response,"[1]; individual patient, RECIST 1.1",SD (11×) and PD (PD means that the tumor has increased by 20% or more) (5×)
same,Weight change,"[1]; individual patient, screening to 1 month of treatment, 100 mg/day subcutaneous",1.4% (3×) and −4.6% and 1.1% and 6.0% and −1.3% and −3.6% and 0.0% and −6.7% and −3.4% and 3.4% and −4.9% and 10.6% and −0.8%
same,"Cachexia, % of patients",[1]; [5],12.5%
same,"Cachexia, number of patients",[1]; [5],2
same,"Weight gain (maintained or increased weight), number of patients",[1]; [5],8
same,"Weight gain, % of patients",[1]; [5],50.0%
same,"Weight loss (not corresponding to cachexia), number of patients",[1]; [5],6
same,"Weight loss, % of patients",[1]; [5],37.5%
same,number of patients with stable disease,[1]; out of 16 patients,11
same,DLT (dose limiting toxicity),[1]; phase 2 clinical trials,Non-DLT
same,concentration of lactate in muscle tissue,[2],no change
same,concentration of lactate in tumor tissues,[2]; 2 hours after administration,increases
same,effect on survival in colorectal cancer cells,[3],cancer cell death can be observed
